Results as given in paper PMC4637315, “Hydroxycarboxylic acid receptors are essential for breast cancer cells to control their lipid/fatty acid metabolism” (Oncotarget, 2015).

Experiments:
Type in all cases: cell-based
HCA1 [1] = target: T1, HCA1 (Homo sapiens, UniProt Q9BXC0); test: cAMP decrease in BT-474 cells, blocked by pertussis toxin
T1 construct: gene HCAR1; endogenous receptor in BT-474 cells

HCA2 = target: T2, HCA2 (Homo sapiens, UniProt Q8TDS4); test: AlphaScreen cAMP assay, inhibition of forskolin-induced cAMP in BT-474 cells, pertussis toxin sensitive
T2 construct: gene HCAR2; endogenous receptor in BT-474 cells
T2 sequence (Q8TDS4 whole entry): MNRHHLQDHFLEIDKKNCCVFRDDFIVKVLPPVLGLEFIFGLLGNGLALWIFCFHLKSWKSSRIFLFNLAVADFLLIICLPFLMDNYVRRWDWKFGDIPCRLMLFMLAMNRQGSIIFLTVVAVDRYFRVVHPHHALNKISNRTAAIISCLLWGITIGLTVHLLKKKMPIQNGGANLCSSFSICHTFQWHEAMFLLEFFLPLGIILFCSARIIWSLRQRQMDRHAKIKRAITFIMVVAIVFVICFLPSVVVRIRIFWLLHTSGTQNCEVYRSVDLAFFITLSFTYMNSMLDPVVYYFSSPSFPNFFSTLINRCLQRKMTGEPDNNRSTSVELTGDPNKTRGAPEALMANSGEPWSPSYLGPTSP

HCA3 [2] = target: T3, HCA3 (Homo sapiens, UniProt P49019); test: as above
T3 construct: gene HCAR3; endogenous receptor in BT-474 cells
T3 sequence (P49019 whole entry): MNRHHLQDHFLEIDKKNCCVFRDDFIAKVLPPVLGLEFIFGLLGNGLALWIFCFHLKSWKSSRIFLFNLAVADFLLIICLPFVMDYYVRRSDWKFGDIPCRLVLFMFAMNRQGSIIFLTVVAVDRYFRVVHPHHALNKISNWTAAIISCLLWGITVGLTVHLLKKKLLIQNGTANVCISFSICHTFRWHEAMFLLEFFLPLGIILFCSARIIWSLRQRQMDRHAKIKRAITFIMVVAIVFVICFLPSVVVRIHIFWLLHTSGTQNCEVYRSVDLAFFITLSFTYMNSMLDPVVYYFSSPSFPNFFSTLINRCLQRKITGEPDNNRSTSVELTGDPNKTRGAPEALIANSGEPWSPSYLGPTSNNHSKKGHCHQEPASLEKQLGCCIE

HCA3 [3] = target: T3, HCA3; test: cAMP decrease in BT-474 cells, blocked by pertussis toxin
HCA1 [4] = target: T1, HCA1; test: AlphaScreen cAMP assay, inhibition of forskolin-induced cAMP in BT-474 cells, pertussis toxin sensitive

T1 sequence (Q9BXC0 whole entry): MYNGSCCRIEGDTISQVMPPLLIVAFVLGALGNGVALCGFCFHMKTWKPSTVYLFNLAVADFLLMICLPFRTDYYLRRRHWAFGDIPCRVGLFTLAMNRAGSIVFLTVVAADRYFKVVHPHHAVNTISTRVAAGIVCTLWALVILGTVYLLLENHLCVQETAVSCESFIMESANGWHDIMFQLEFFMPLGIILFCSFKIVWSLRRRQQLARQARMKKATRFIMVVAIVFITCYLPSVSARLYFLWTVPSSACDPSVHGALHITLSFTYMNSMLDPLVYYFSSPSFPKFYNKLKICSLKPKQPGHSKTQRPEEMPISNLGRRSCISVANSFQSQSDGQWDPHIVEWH

SMILES: O=C(O)c1cc(O)cc(O)c1 [3,5 DHB, 3,5-dihydroxybenzoic acid]
- cAMP decrease in BT-474 cells, blocked by pertussis toxin (HCA1 [1]): synthetic HCA agonist-induced decrease in intracellular cAMP levels in BT-474 cells (Figure 3D-F)

SMILES: CC(O)CC(=O)O (centres unmarked) [3HB, 3-hydroxybutyrate]
- EC50 (HCA2): 460 µM

SMILES: CCCCCC(O)CC(=O)O (centres unmarked) [3HO, 3-hydroxyoctanoate]
- EC50 (HCA3 [2]): 9.5 µM

SMILES: CC(C)n1nnc2cc(C(=O)O)ccc21 [IPBT-5CA, 1-(1-methylethyl)-1H-benzotriazole-5-carboxylic acid]
- cAMP decrease in BT-474 cells, blocked by pertussis toxin (HCA3 [3]): synthetic HCA agonist-induced decrease in intracellular cAMP levels in BT-474 cells (Figure 3D-F)

SMILES: C[C@H](O)C(=O)O [lactate]
- EC50 (HCA1 [4]): 3400 µM
